Earlier results, collected in patent US10894875B2, “Films and unit dose articles comprising aversive UV-protective agents, and uses and methods related thereto” (The Procter & Gamble Company, priority 2017, dated 2021).
Marks after values point to notes of the source that are not given here. Each block holds one compound with its values, some of them ahead of it.

Assays:
[1] = high assessed based on melting point; low = hydrolysis; based on literature
[2] = reference quinine; lower values correspond to stronger bittering
[3] = Scoville heat units

Thermostability [1]: Low^c
Compound: CCCCCOC(=O)c1ccc(N(C)C)cc1 [Ex. 6, Padimate A, reference compound]

Compound: C=C[C@H]1C[N@@]2CC[C@H]1C[C@H]2[C@H](O)c1ccnc2ccc(OC)cc12 [Ex. 7, Quinine, reference compound]
Bittering index [2]: 0^d

Compound: COc1cc(CNC(=O)CCCC/C=C/C(C)C)ccc1O [capsaicin]
pungency level [3]: about 16,000,000 SHU
